# Calls of active or inactive are those of the source. The calls are words filed in the database; no cut-off is given here.
# What was measured:
# Penicillium fellutanum = experiment: Inhibition of Penicillium fellutanum exo beta-D-galactofuranosidase assessed as 4-nitrophenol release at 0.2 to 1 mM by spectrophotometry
# [1] = Inhibition of Penicillium fellutanum exo beta-D-galactofuranosidase assessed as 4-nitrophenol release by spectrophotometry
Compound,Activity (Penicillium fellutanum),IC50 [1] [µM]
CC1(C)O[C@H]2[C@@H](O1)[C@@H](CS[C@@H]1O[C@@H]([C@H](O)CO)[C@H](O)[C@H]1O)O[C@@H]1OC(C)(C)O[C@@H]12,Active,> 1000
CO[C@H]1O[C@H](CS[C@@H]2O[C@@H](CO)[C@H](O)[C@H]2O)[C@@H](O)[C@H](O)[C@H]1O,inactive,
CO[C@H]1O[C@H](CS[C@@H]2O[C@@H]([C@H](O)CO)[C@H](O)[C@H]2O)[C@H](O)[C@H](O)[C@H]1O,Active,> 1000
O=C1O[C@@H]([C@H](O)CO)[C@H](O)[C@H]1O,,20

# Reference: ChEMBL document CHEMBL1153962, “Thiodisaccharides with galactofuranose or arabinofuranose as terminal units: synthesis and inhibitory activity of an exo beta-D-galactofuranosidase” (Bioorg Med Chem, 2009)
